{"source": "patent US9456604B2", "about": "“Herbicide composition” (Syngenta Crop Protection, LLC, priority 2008, dated 2016)", "format_in_all_cases": "in vivo", "key": {"corn": {"system": "corn", "test": "Greenhouse trial, effect of pH on selectivity: four corn varieties", "conditions": "for % phytotoxicity observed, Corn \"Cecilia\" 8 DAA / % phytotoxicity observed, Corn \"Lorenzo\" 8 DAA / % phytotoxicity observed, Corn \"Marista\" 8 DAA / % phytotoxicity observed, Corn \"Blizzard\" 28 DAA / % phytotoxicity observed, Corn \"Cecilia\" 28 DAA / % phytotoxicity observed, Corn \"Lorenzo\" 28 DAA / % phytotoxicity observed, Corn \"Marista\" 28 DAA / % phytotoxicity observed, Corn \"Blizzard\" 8 DAA: early POST, 200 l/ha", "protocol": "(§1) A greenhouse trial was conducted to look at the effect of pH on the selectivity of an emulsifiable concentrate composition comprising compound B (compound of formula wherein R^1=methoxy-propyl and R^2═CHF2). Applications were made early POST using four corn varieties and eight weeds (Broad leaf weeds: Amaranthus retroflexus (AMARE), Ipomoea hederacea (IPOHE), Polygonum convolvulus (POLCO) Grasses: Digitaria sanuinalis (DIGSA), Echinochloa crus-galli (ECHCG), Eriochloa villosa (ERBVI), Panicum dichotomiflorum (PANDI), Setaria viridus (SETVI)). The spray volume applied was 200 l/ha. Phytotoxicity evaluations were made 8 days after application (DAA) and/or 28 DAA. Results are provided as % phytotoxicity observed wherein 0=no visible phytotoxicity to 100=complete phytotoxicity."}, "[1]": {"system": "Amaranthus retroflexus (AMARE)", "test": "Greenhouse trial, effect of pH on selectivity: weed", "conditions": "early POST, 200 l/ha", "protocol": "as §1"}, "[2]": {"system": "Echinochloa crus-galli (ECHCG)", "test": "Greenhouse trial, effect of pH on selectivity: weed", "conditions": "early POST, 200 l/ha", "protocol": "as §1"}, "[3]": {"system": "Polygonum convolvulus (POLCO)", "test": "Greenhouse trial, effect of pH on selectivity: weed", "conditions": "early POST, 200 l/ha", "protocol": "as §1"}, "[4]": {"system": "Digitaria sanuinalis (DIGSA)", "test": "Greenhouse trial, effect of pH on selectivity: weed", "conditions": "early POST, 200 l/ha", "protocol": "as §1"}, "[5]": {"system": "Eriochloa villosa (ERBVI)", "test": "Greenhouse trial, effect of pH on selectivity: weed", "conditions": "early POST, 200 l/ha", "protocol": "as §1"}, "[6]": {"system": "Panicum dichotomiflorum (PANDI)", "test": "Greenhouse trial, effect of pH on selectivity: weed", "conditions": "early POST, 200 l/ha", "protocol": "as §1"}, "Setaria viridus (SETVI)": {"system": "Setaria viridus (SETVI)", "test": "Greenhouse trial, effect of pH on selectivity: weed", "conditions": "early POST, 200 l/ha", "protocol": "as §1"}, "[7]": {"system": "Ipomoea hederacea (IPOHE)", "test": "Greenhouse trial, effect of pH on selectivity: weed", "conditions": "early POST, 200 l/ha", "protocol": "as §1"}}}
{"smiles": "COCCCc1nc(C(F)F)ccc1C(=O)C1C(=O)C2CCC(C2)C1=O", "note": "(stereo not drawn) [Compound B]", "values": [{"measurement": "% phytotoxicity observed, Corn \"Cecilia\" 8 DAA", "setting": "corn; 100 g ai/ha, pH 3, 8 DAA", "result": 5, "unit": "%"}, {"measurement": "% phytotoxicity observed, Corn \"Lorenzo\" 8 DAA", "setting": "corn; 100 g ai/ha, pH 3, 8 DAA", "result": 20, "unit": "%"}, {"measurement": "% phytotoxicity observed, Corn \"Marista\" 8 DAA", "setting": "corn; 100 g ai/ha, pH 3, 8 DAA", "result": 5, "unit": "%"}, {"measurement": "% phytotoxicity observed, Corn \"Blizzard\" 28 DAA", "setting": "corn; 100 g ai/ha, pH 3, 28 DAA", "result": 10, "unit": "%"}, {"measurement": "% phytotoxicity observed, Corn \"Cecilia\" 28 DAA", "setting": "corn; 100 g ai/ha, pH 3, 28 DAA", "result": 10, "unit": "%"}, {"measurement": "% phytotoxicity observed, Corn \"Lorenzo\" 28 DAA", "setting": "corn; 100 g ai/ha, pH 3, 28 DAA", "result": 25, "unit": "%"}, {"measurement": "% phytotoxicity observed, Corn \"Marista\" 28 DAA", "setting": "corn; 100 g ai/ha, pH 3, 28 DAA", "result": 5, "unit": "%"}, {"measurement": "% phytotoxicity observed, Corn \"Cecilia\" 8 DAA", "setting": "corn; 100 g ai/ha, pH 8, 8 DAA", "result": 5, "unit": "%"}, {"measurement": "% phytotoxicity observed, Corn \"Lorenzo\" 8 DAA", "setting": "corn; 100 g ai/ha, pH 8, 8 DAA", "result": 20, "unit": "%"}, {"measurement": "% phytotoxicity observed, Corn \"Marista\" 8 DAA", "setting": "corn; 100 g ai/ha, pH 8, 8 DAA", "result": 5, "unit": "%"}, {"measurement": "% phytotoxicity observed, Corn \"Blizzard\" 28 DAA", "setting": "corn; 100 g ai/ha, pH 8, 28 DAA", "result": 10, "unit": "%"}, {"measurement": "% phytotoxicity observed, Corn \"Cecilia\" 28 DAA", "setting": "corn; 100 g ai/ha, pH 8, 28 DAA", "result": 10, "unit": "%"}, {"measurement": "% phytotoxicity observed, Corn \"Lorenzo\" 28 DAA", "setting": "corn; 100 g ai/ha, pH 8, 28 DAA", "result": 20, "unit": "%"}, {"measurement": "% phytotoxicity observed, Corn \"Marista\" 28 DAA", "setting": "corn; 100 g ai/ha, pH 8, 28 DAA", "result": 5, "unit": "%"}, {"measurement": "% phytotoxicity observed, Corn \"Blizzard\" 8 DAA", "setting": "corn; 200 g ai/ha, pH 3, 8 DAA", "result": 25, "unit": "%"}, {"measurement": "% phytotoxicity observed, Corn \"Cecilia\" 8 DAA", "setting": "corn; 200 g ai/ha, pH 3, 8 DAA", "result": 20, "unit": "%"}, {"measurement": "% phytotoxicity observed, Corn \"Lorenzo\" 8 DAA", "setting": "corn; 200 g ai/ha, pH 3, 8 DAA", "result": 30, "unit": "%"}, {"measurement": "% phytotoxicity observed, Corn \"Marista\" 8 DAA", "setting": "corn; 200 g ai/ha, pH 3, 8 DAA", "result": 30, "unit": "%"}, {"measurement": "% phytotoxicity observed, Corn \"Blizzard\" 28 DAA", "setting": "corn; 200 g ai/ha, pH 3, 28 DAA", "result": 20, "unit": "%"}, {"measurement": "% phytotoxicity observed, Corn \"Cecilia\" 28 DAA", "setting": "corn; 200 g ai/ha, pH 3, 28 DAA", "result": 20, "unit": "%"}, {"measurement": "% phytotoxicity observed, Corn \"Lorenzo\" 28 DAA", "setting": "corn; 200 g ai/ha, pH 3, 28 DAA", "result": 30, "unit": "%"}, {"measurement": "% phytotoxicity observed, Corn \"Marista\" 28 DAA", "setting": "corn; 200 g ai/ha, pH 3, 28 DAA", "result": 15, "unit": "%"}, {"measurement": "% phytotoxicity observed, Corn \"Blizzard\" 8 DAA", "setting": "corn; 200 g ai/ha, pH 8, 8 DAA", "result": 20, "unit": "%"}, {"measurement": "% phytotoxicity observed, Corn \"Cecilia\" 8 DAA", "setting": "corn; 200 g ai/ha, pH 8, 8 DAA", "result": 20, "unit": "%"}, {"measurement": "% phytotoxicity observed, Corn \"Lorenzo\" 8 DAA", "setting": "corn; 200 g ai/ha, pH 8, 8 DAA", "result": 25, "unit": "%"}, {"measurement": "% phytotoxicity observed, Corn \"Marista\" 8 DAA", "setting": "corn; 200 g ai/ha, pH 8, 8 DAA", "result": 5, "unit": "%"}, {"measurement": "% phytotoxicity observed, Corn \"Blizzard\" 28 DAA", "setting": "corn; 200 g ai/ha, pH 8, 28 DAA", "result": 10, "unit": "%"}, {"measurement": "% phytotoxicity observed, Corn \"Cecilia\" 28 DAA", "setting": "corn; 200 g ai/ha, pH 8, 28 DAA", "result": 10, "unit": "%"}, {"measurement": "% phytotoxicity observed, Corn \"Lorenzo\" 28 DAA", "setting": "corn; 200 g ai/ha, pH 8, 28 DAA", "result": 25, "unit": "%"}, {"measurement": "% phytotoxicity observed, Corn \"Marista\" 28 DAA", "setting": "corn; 200 g ai/ha, pH 8, 28 DAA", "result": 5, "unit": "%"}, {"measurement": "phytotoxicity observed in corn when applied at pH 8 rather than pH 3", "setting": "corn; pH 8 versus pH 3, greenhouse trial, Table C", "result": "significantly decreased"}, {"measurement": "% phytotoxicity observed, AMARE 8 DAA", "setting": "[1]; 100 g ai/ha, pH 3, 8 DAA", "result": 98, "unit": "%"}, {"measurement": "% phytotoxicity observed, AMARE 8 DAA", "setting": "[1]; 100 g ai/ha, pH 8, 8 DAA", "result": 95, "unit": "%"}, {"measurement": "% phytotoxicity observed, AMARE 8 DAA", "setting": "[1]; 200 g ai/ha, pH 3, 8 DAA", "result": 100, "unit": "%"}, {"measurement": "% phytotoxicity observed, AMARE 8 DAA", "setting": "[1]; 200 g ai/ha, pH 8, 8 DAA", "result": 98, "unit": "%"}, {"measurement": "% phytotoxicity observed, ECHCG 8 DAA", "setting": "[2]; 100 g ai/ha, pH 3, 8 DAA", "result": 80, "unit": "%"}, {"measurement": "% phytotoxicity observed, ECHCG 8 DAA", "setting": "[2]; 100 g ai/ha, pH 8, 8 DAA", "result": 95, "unit": "%"}, {"measurement": "% phytotoxicity observed, ECHCG 8 DAA", "setting": "[2]; 200 g ai/ha, pH 3, 8 DAA", "result": 98, "unit": "%"}, {"measurement": "% phytotoxicity observed, ECHCG 8 DAA", "setting": "[2]; 200 g ai/ha, pH 8, 8 DAA", "result": 95, "unit": "%"}, {"measurement": "% phytotoxicity observed, POLCO 8 DAA", "setting": "[3]; 100 g ai/ha, pH 3, 8 DAA", "result": 80, "unit": "%"}, {"measurement": "% phytotoxicity observed, POLCO 8 DAA", "setting": "[3]; 100 g ai/ha, pH 8, 8 DAA", "result": 70, "unit": "%"}, {"measurement": "% phytotoxicity observed, POLCO 8 DAA", "setting": "[3]; 200 g ai/ha, pH 3, 8 DAA", "result": 95, "unit": "%"}, {"measurement": "% phytotoxicity observed, POLCO 8 DAA", "setting": "[3]; 200 g ai/ha, pH 8, 8 DAA", "result": 90, "unit": "%"}, {"measurement": "% phytotoxicity observed, DIGSA 8 DAA", "setting": "[4]; 100 g ai/ha, pH 3, 8 DAA", "result": 85, "unit": "%"}, {"measurement": "% phytotoxicity observed, DIGSA 8 DAA", "setting": "[4]; 100 g ai/ha, pH 8, 8 DAA", "result": 85, "unit": "%"}, {"measurement": "% phytotoxicity observed, DIGSA 8 DAA", "setting": "[4]; 200 g ai/ha, pH 3, 8 DAA", "result": 100, "unit": "%"}, {"measurement": "% phytotoxicity observed, DIGSA 8 DAA", "setting": "[4]; 200 g ai/ha, pH 8, 8 DAA", "result": 95, "unit": "%"}, {"measurement": "% phytotoxicity observed, ERBVI 8 DAA", "setting": "[5]; 100 g ai/ha, pH 3, 8 DAA", "result": 80, "unit": "%"}, {"measurement": "% phytotoxicity observed, ERBVI 8 DAA", "setting": "[5]; 100 g ai/ha, pH 8, 8 DAA", "result": 98, "unit": "%"}, {"measurement": "% phytotoxicity observed, ERBVI 8 DAA", "setting": "[5]; 200 g ai/ha, pH 3, 8 DAA", "result": 90, "unit": "%"}, {"measurement": "% phytotoxicity observed, ERBVI 8 DAA", "setting": "[5]; 200 g ai/ha, pH 8, 8 DAA", "result": 98, "unit": "%"}, {"measurement": "% phytotoxicity observed, PANDI 8 DAA", "setting": "[6]; 100 g ai/ha, pH 3, 8 DAA", "result": 98, "unit": "%"}, {"measurement": "% phytotoxicity observed, PANDI 8 DAA", "setting": "[6]; 100 g ai/ha, pH 8, 8 DAA", "result": 98, "unit": "%"}, {"measurement": "% phytotoxicity observed, PANDI 8 DAA", "setting": "[6]; 200 g ai/ha, pH 3, 8 DAA", "result": 100, "unit": "%"}, {"measurement": "% phytotoxicity observed, PANDI 8 DAA", "setting": "[6]; 200 g ai/ha, pH 8, 8 DAA", "result": 100, "unit": "%"}, {"measurement": "% phytotoxicity observed, SETVI 8 DAA", "setting": "Setaria viridus (SETVI); 100 g ai/ha, pH 3, 8 DAA", "result": 90, "unit": "%"}, {"measurement": "% phytotoxicity observed, SETVI 8 DAA", "setting": "Setaria viridus (SETVI); 100 g ai/ha, pH 8, 8 DAA", "result": 90, "unit": "%"}, {"measurement": "% phytotoxicity observed, SETVI 8 DAA", "setting": "Setaria viridus (SETVI); 200 g ai/ha, pH 3, 8 DAA", "result": 100, "unit": "%"}, {"measurement": "% phytotoxicity observed, SETVI 8 DAA", "setting": "Setaria viridus (SETVI); 200 g ai/ha, pH 8, 8 DAA", "result": 98, "unit": "%"}, {"measurement": "% phytotoxicity observed, IPOHE 8 DAA", "setting": "[7]; 100 g ai/ha, pH 3, 8 DAA", "result": 80, "unit": "%"}, {"measurement": "% phytotoxicity observed, IPOHE 8 DAA", "setting": "[7]; 100 g ai/ha, pH 8, 8 DAA", "result": 85, "unit": "%"}, {"measurement": "% phytotoxicity observed, IPOHE 8 DAA", "setting": "[7]; 200 g ai/ha, pH 3, 8 DAA", "result": 95, "unit": "%"}, {"measurement": "% phytotoxicity observed, IPOHE 8 DAA", "setting": "[7]; 200 g ai/ha, pH 8, 8 DAA", "result": 90, "unit": "%"}]}
